The test system of one assay is GOTO cells. Nature of the assay: aequorin bioluminescence assay in GOTO cells without exogenous MCHR1 (aequorin only, or no plasmids). Type of assay: cell-based, human. Here is the method:
The aequorin bioluminescence assay can be used to measure the activity of G protein-coupled receptors that couple through the Ga protein subunit family consisting of Gq, G11, and Gi leading to the activation of phospholipase C, mobilization of intracellular calcium and activation of protein kinase C. Measurement of functional MCHR1 expression in GOTO cells transiently expressing aequorin was performed using a Luminoskan RT luminometer (Labsystems Inc., Gaithersburg, Md.) controlled by custom software written for a Macintosh PowerPC 6100.
GOTO cells (1.2×10^7 cells plated 18 hours before transfection in a T75 flask) were transfected with human MCHR1 plasmid DNA and aequorin cDNA using the Lipofectamine 2000 procedure (Life Technologies, Gaithersburg, Md.). Human MCHR1 plasmid DNA contained the open reading frame cDNA (SEQ. ID. NO. 2) encoding the human MCHR1 receptor inserted in the mammalian expression vector pcDNA-3 (Invitrogen, Carlsbad, Calif.). An aequorin expressing plasmid contained the cDNA for aequorin (Button, et al., 1993. Cell Calcium 14, 663-671), inserted in pcDNA-3. Following approximately 40 hours of expression the apo-aequorin in the cells was charged for 1 hour with coelenterazine (10 μM) under reducing conditions (300 μM reduced glutathione) in ECB buffer (140 mM NaCl, 20 mM KCl, 20 mM HEPES-NaOH [pH=7.4], 5 mM glucose, 1 mM MgCl2, 1 mM CaCl2, 0.1 mg/ml bovine serum albumin). The cells were harvested, washed once in ECB medium and resuspended to 500,000 cells/ml or 1,000,000cells/ml.
Lysophosphatidic acid triggers native edg receptors coupled to PLC activation present on GOTO cells. The integrated light emission was recorded over 30 seconds, in 0.5 second units. 20 μL of lysis buffer (0.1% final Triton X-100 concentration) was then injected and the integrated light emission recorded over 10 seconds, in 0.5 second units. The “fractional response” values for each well were calculated by taking the ratio of the integrated response to the initial challenge to the total integrated luminescence including the Triton X-100 lysis response.

In assay [1] the target is human melanin-concentrating hormone receptor 1 (MCHR1) (human) (UniProt Q99705). Nature of the assay: cell-based or functional assay.
human melanin-concentrating hormone receptor 1 (MCHR1) (human), sequence (Q99705 whole entry): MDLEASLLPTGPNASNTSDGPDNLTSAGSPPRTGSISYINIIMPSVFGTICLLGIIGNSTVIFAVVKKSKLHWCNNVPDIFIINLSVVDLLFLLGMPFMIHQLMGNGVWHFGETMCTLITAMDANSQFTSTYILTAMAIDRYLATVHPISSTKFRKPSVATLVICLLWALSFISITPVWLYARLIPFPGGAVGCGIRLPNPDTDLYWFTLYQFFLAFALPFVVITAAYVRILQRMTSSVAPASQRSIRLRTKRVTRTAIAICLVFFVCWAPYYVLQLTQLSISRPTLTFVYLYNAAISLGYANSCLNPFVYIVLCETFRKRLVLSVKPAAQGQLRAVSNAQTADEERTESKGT
The target of the next assay is T1, human MCHR1 (Homo sapiens, UniProt Q99705).
T1 construct: expressed in transfected cells; host or cells: GOTO human neuroblastoma cells, transient co-transfection with aequorin cDNA (pcDNA-3, Lipofectamine 2000)
T1 sequence (Q99705 whole entry): as above
Nature of the assay: aequorin bioluminescence assay in GOTO cells co-transfected with aequorin and human MCHR1. The class given is cell-based. As to conditions: 1 μM; GOTO cells transfected with AEQ + MCHR1. Here is the method: 20 μL of lysis buffer (0.1% final Triton X-100 concentration) was then injected and the integrated light emission recorded over 10 seconds, in 0.5 second units. The “fractional response” values for each well were calculated by taking the ratio of the integrated response to the initial challenge to the total integrated luminescence including the Triton X-100 lysis response.

[2] abbreviates: 1 μM, GOTO cells, No Aeq (no aequorin and no MCHR1 plasmid).

We go through three substances from patent publication US20040072287A1 (priority 2003, published 2004).

Several values for one entry are separate records, joined by “and”; a condition that tells them apart may be missing. Equal entries are not always repeated. Ends that are not written are not given here.

On to “Melanin-concentrating hormone (DFDMLRCMLGRVYRPCWQV; ends and bridges not checked; also: cyclic, ring closure not given here) [MCH]”, for which the bioluminescence with GOTO cells (setting [2]) is 0 cps. Besides, the “signal over background (in words)” value in the assay with GOTO cells (GOTO cells, absence of exogenous MCHR1, background = buffer injection only (ECB)) was “no signal over background”.

Take “Melanin-concentrating hormone (MCH) (from UniProt P20382 147-165) (peptide)”: in assay [1], the aequorin bioluminescence (cps), GOTO cells transfected with AEQ + MCHR1, MCH (1 µM) was 26.4 cps and 26.6 cps.

lysophosphatidic acid [LPA]: the bioluminescence at human MCHR1 amounted to 6.83 cps; in the assay on GOTO cells (1 μM, GOTO cells transfected with AEQ only (no MCHR1 plasmid)), 5.24 cps; in the assay with GOTO cells (setting [2]) it was 0 cps. For the same substance, in the assay with GOTO cells (1 μM, GOTO cells, native edg receptor), the “control response, calcium mobilization via edg receptor (in words)” value is on record as “control response evoked”.
